# Test results reported in patent publication US8592152B2, “Gene detection assay for improving the likelihood of an effective response to an EGFR antagonist cancer therapy” (Genentech, Inc., priority 2000, dated 2013).
# Tested on: metastatic breast cancer
# Experiment: FISH/clinical outcome study: chemotherapy +/- Herceptin, 1st line therapy
# Format: in vivo, human
# Protocol: The Clinical Testing Assay (CTA) involves two separate IHC assays performed with either monoclonal antibodies 4D5 (after protease digestion of the formalin fixed sample) or CB11 (after heat treatment of the formalin fixed sample). Subjects were eligible if either assay was scored at 2+ or 3+. If both were performed, the final score was the higher of the two results. […] Thus, formalin-fixed cut sections stored between 2.5 and 4.5 years from 540 subjects provided the sample pool for this study.
Compound,Response rate of newly defined populations (2+/3+ population (469)),Survival of newly defined populations (2+/3+ population (469)) [months],Time to progression of newly defined populations (2+/3+ population (469)) [months],Response rate of newly defined populations (3+ population (349)),Survival of newly defined populations (3+ population (349)) [months],Time to progression of newly defined populations (3+ population (349)) [months],Response rate of newly defined populations (FISH+ population (240)),Survival of newly defined populations (FISH+ population (240)) [months],Time to progression of newly defined populations (FISH+ population (240)) [months]
"CC(=O)O[C@H]1C(=O)[C@@]2(C)[C@H]([C@H](OC(=O)c3ccccc3)[C@]3(O)C[C@H](OC(=O)[C@H](O)[C@@H](NC(=O)c4ccccc4)c4ccccc4)C(C)=C1C3(C)C)[C@]1(OC(C)=O)CO[C@@H]1C[C@@H]2O [P, Paditaxol]",17,18,2.7,17,18,3.0,14,14,3.2
adrinomycin and cyclophosphamide [AC],42,21,6.1,42,21,6.0,40,20,6.2
